In US4067997A, “Synergistic microbecidal composition and method” (priority 1976, dated 1978):
Values after ≈ are worked out from the molar mass of the structure shown. Counter-ions that a name gives are not always drawn. Like-named read-outs stand apart in the source and are kept apart here.

Experiments:
Corynebacterium sp. = experiment: MIC on mass basis (Example V procedure); type: cell-based
Description: (§1) The essential procedure of Example I was followed with a series of phenolic compounds, with the exception that the test method was conducted on a mass (μg/ml) basis rather than a molecular (mol/ml) basis of the foregoing tests, since the long established phenol-coeffecient test is on a mass rather than molecular basis. Additionally, a different but closely related group of organisms were used in this test, in order to give a complete representative span on gram-negative, gram-positive and fungus organisms. Additionally, the phenolic derivatives chosen for test purposes include a number of derivatives which are presently accepted by the FDA as food-grade phenolic microbicides.

Nocardia asteroides = experiment: MIC on mass basis (Example V procedure); type: cell-based
Description: as §1
(§2) The same procedure of Example V was repeated but with combinations of mono-laurin (GML).
(§3) The procedure of Example V was repeated with combinations of glycerol mono-laurin (GML) and ethylenediamine tetraacetic acid (EDTA) as the calcium salt and in combination with BHA.

Streptococcus agalactiae = experiment: MIC on mass basis (Example V procedure); type: cell-based
Description: as §1, §2, §3

Saccharomyces cerevisiae = experiment: MIC on mass basis (Example V procedure); type: cell-based
Description: as §1, §2, §3

Staphylococcus aureus = experiment: MIC on mass basis (Example V procedure); type: cell-based
Description: as §1, §2, §3

Pseudomonas aeruginosa = experiment: MIC on mass basis (Example V procedure); type: cell-based
Description: as §1, §2, §3

Candida albicans = experiment: MIC on mass basis (Example V procedure); type: cell-based
Description: as §1, §2, §3

Escherichia coli = experiment: MIC on mass basis (Example V procedure); type: cell-based
Description: as §1, §2, §3

Streptococcus mutans = experiment: MIC on mass basis (Example V procedure); type: cell-based, Streptococcus mutans (ATCC 10441)
Description: as §1, §2, §3

Streptococcus Group D = experiment: MIC, broth dilution (Examples I/II); type: cell-based; conditions: Table 3, Streptococcus Group D
Description: In order to establish comparative bactericidal and fungicidal results with homologous fatty acids, a series of experiments was performed with thirty straight-chain fatty acids and derivatives thereof. Eight different gram-negative and twelve different gram-positive organisms, representing a very broad spectrum of organisms, were used in these experiments including the fungus Candida (a yeast). Additionally, fatty acids were chosen to show the effects of saturation versus unsaturation, in the fatty acid claim. Standard solutions of the fatty acids and their derivatives were prepared by first dissolving the weighed compounds in 1 to 2 ml of 95% ethanol and immediately pouring this solution into 200 ml of Tripticase Soy Broth. These lipid compounds which are insoluble in water and broth precipitated into very small crystals or droplets. The tubes containing the suspension were warmed to approximately 70° C and were then placed in an ultrasonic tank for further solubilization of the lipid derivatives.
Standard solutions (or suspensions) at 1,000 μg/ml were twofold serially diluted with additional broth to a concentration of 125 μg/ml. A 4-ml amount of each dilution was then quickly, and with constant agitation, dispensed into appropriately labeled screw-capped glass tubes (16 by 125 mm). The tubes were sterilized with steam at 15 psi for 15 minutes. After sterilization, all tubes were cooled and incubated overnight at 35° C to insure sterility.
All compounds were compared on a molar (micromoles/milliliter) rather than on a mass basis. In the following lists of organisms used, those followed by a parenthetical number are registered with the American Type Culture Collection (ATCC); the remainder were isolates from Providence Hospital or Northland Laboratory.
One drop (0.04 ± 0.01 ml) of an 18-hr broth culture containing 10^7 and 10^9 organisms/ml was added to each dilution of the test compound, as well as to a tube of plain broth which served as the positive control. After inoculation, the contents of each tube were well mixed, and the tubes were incubated at 35° C in a 5% carbon dioxide + […] atmosphere.
The MIC is defined as the lowest concentration of compound at which no […] evidence of growth was observed when turbidity of the inoculated broth dilutions was compared with control tubes. […] Only a one-tube difference between the bactericidal and bacteriostatic concentrations was normally observed.
Standard solutions (1000 μg/ml) of three fatty acids and polyglycerol esters thereof were prepared as described in Example I. Also sucrose esters were prepared by transferring the weighed compounds (0.2 gm. dissolved in 1 ml absolute methanol) into 200 ml of sterile Trypticase Soy Broth (TSB). These standard solutions (1000 μg/ml) were twofold serially diluted with additional sterile broth to a concentration of 125 μg/ml. A 3.8 aliquot of each dilution was asceptically delivered into sterile screw-capped culture tubes. All tubes were incubated overnight at 36° C to insure sterility. The microorganisms used in this example were the same as those used in Example I.
The inoculum, 0.05 ml of an 13-24 hour TSB culture (approximately 10^9 organisms/ml) was asceptically delivered into all dilutions of the compounds, mixed well, and incubated at 36° C. A tube of inoculated broth without the compound served as a positive control and an uninoculated set of dilutions incubated along with the test dilutions, served as a negative control.
In those cases in which the test compound itself caused turbidity, an aliquot (0.015 ml) of the mixed broth was inoculated onto an agar plate and incubated at 36° C for examination, as described in Example I. The control procedure of Example I was also repeated. The lauric, capric, and oleic acids were used as internal controls and for comparison to Example I. The minimal inhibitory concentrations (μmole/ml) for the compounds studied are given in Tables 7 and 8.

[1] = Table 11, Corynebacterium sp., read-out: MIC
[2] = Table 11, Nocardia asteroides, read-out: MIC
[3] = Streptococcus agalactiae, Table 11, Strepococcus agalactiae, read-out: MIC
[4] = Staphylococcus aureus, Table 11, Staphylococcus aureus, read-out: MIC
[5] = Pseudomonas aeruginosa, Table 11, Pseudomonas aeruginosa, read-out: MIC
[6] = Candida albicans, Table 11, Candida albicans, read-out: MIC
[7] = Escherichia coli, Table 11, Escherichia coli, read-out: MIC
[8] = Streptococcus mutans, Table 11, Strepococcus mutans, read-out: MIC

## 3(2)-tert-butyl-4-methoxyphenol [BHA]
Corynebacterium sp.; Table 11, Corynebacterium sp.
  MIC: 62.50 µg/mL
Nocardia asteroides; Table 11, Nocardia asteroides
  MIC: 125 µg/mL
Nocardia asteroides; Table 13, Nocardia asteroides
  MIC: 62.50 µg/mL
Nocardia asteroides; Table 14, Nocardia asteroides
  MIC: 62.50 µg/mL
Streptococcus agalactiae; Table 11, Strepococcus agalactiae
  MIC: 125 µg/mL
Streptococcus agalactiae; Table 13, Streptococcus agalactiae
  MIC: 62.50 µg/mL
Streptococcus agalactiae; Table 14, Streptococcus agalactiae
  MIC: 62.50 µg/mL
Saccharomyces cerevisiae; Table 13, Saccharomyces cerevisiae
  MIC: 125 µg/mL
Saccharomyces cerevisiae; Table 14, Saccharomyces cerevisiae
  MIC: 125 µg/mL
Staphylococcus aureus; Table 11, Staphylococcus aureus
  MIC: 125 µg/mL
Staphylococcus aureus; Table 13, Staphylococcus aureus
  MIC: 125 µg/mL
Staphylococcus aureus; Table 14, Staphylococcus aureus
  MIC: 125 µg/mL
Pseudomonas aeruginosa; Table 11, Pseudomonas aeruginosa
  MIC: > 1,000 μg/ml
Pseudomonas aeruginosa; Table 13, Pseudomonas aeruginosa
  MIC: > 1,000 μg/ml
Pseudomonas aeruginosa; Table 14, Pseudomonas aeruginosa
  MIC: > 1,000 μg/ml
Candida albicans; Table 11, Candida albicans
  MIC: 125 µg/mL
Candida albicans; Table 13, Candida albicans
  MIC: 125 µg/mL
Candida albicans; Table 14, Candida albicans
  MIC: 125 µg/mL
Escherichia coli; Table 11, Escherichia coli
  MIC: > 1,000 μg/ml
Escherichia coli; Table 13, Escherichia coli
  MIC: 500 µg/mL
Escherichia coli; Table 14, Escherichia coli
  MIC: 500 µg/mL
Streptococcus mutans; Table 11, Strepococcus mutans
  MIC: 62.50 µg/mL
Streptococcus mutans; Table 13, Streptococcus mutans
  MIC: 62.50 µg/mL
Streptococcus mutans; Table 14, Streptococcus mutans
  MIC: 62.50 µg/mL

## CC(C)(C)c1ccc(C(C)(C)C)c(O)c1 [2,5-di-tert-butylphenol]
Corynebacterium sp.; Corynebacterium
  MIC: 7.8 µg/mL (≈ 37.8 µM)
Nocardia asteroides; Nocardia asteroides
  MIC: 7.8 µg/mL
Streptococcus agalactiae; Streptococcus agalactiae
  MIC: 15.6 µg/mL
Saccharomyces cerevisiae; Saccharomyces cerevisiae
  MIC: 62.5 µg/mL
Staphylococcus aureus; Staphylococcus aureus
  MIC: 62.5 µg/mL
Pseudomonas aeruginosa; Pseudomonas aeruginosa
  MIC: > 1000 µg/mL
Candida albicans; Candida albicans
  MIC: > 1000 µg/mL
Escherichia coli; Escherichia coli
  MIC: > 1000 µg/mL
Streptococcus mutans; Streptococcus mutans
  MIC: 7.8 µg/mL

## CC(C)(C)c1cc(C(C)(C)C)c(O)c(C(=O)O)c1O [3,5-di-tert-butyl-2,6-dihydroxbenzoic]
Corynebacterium sp.; [1]
  MIC: 15.6 µg/mL (≈ 58.6 µM)
Nocardia asteroides; [2]
  MIC: 15.6 µg/mL
Streptococcus agalactiae; [3]
  MIC: 15.6 µg/mL
Saccharomyces cerevisiae; Saccharomyces cerevisiae
  MIC: 500 µg/mL
Staphylococcus aureus; [4]
  MIC: 31.2 µg/mL
Pseudomonas aeruginosa; [5]
  MIC: > 1000 µg/mL
Candida albicans; [6]
  MIC: 500 µg/mL
Escherichia coli; [7]
  MIC: > 1000 µg/mL
Streptococcus mutans; [8]
  MIC: 31.2 µg/mL

## CC(C)(C)c1cc(O)cc(C(C)(C)C)c1 [3,5-di-tert-butylphenol]
Corynebacterium sp.; Corynebacterium
  MIC: 15.6 µg/mL (≈ 75.6 µM)
Nocardia asteroides; Nocardia asteroides
  MIC: 15.6 µg/mL
Streptococcus agalactiae; Streptococcus agalactiae
  MIC: 31.2 µg/mL
Saccharomyces cerevisiae; Saccharomyces cerevisiae
  MIC: 62.5 µg/mL
Staphylococcus aureus; Staphylococcus aureus
  MIC: 31.2 µg/mL
Pseudomonas aeruginosa; Pseudomonas aeruginosa
  MIC: > 1000 µg/mL
Candida albicans; Candida albicans
  MIC: 62.5 µg/mL
Escherichia coli; Escherichia coli
  MIC: > 1000 µg/mL
Streptococcus mutans; Streptococcus mutans
  MIC: 15.6 µg/mL

## CC(C)(C)c1cc(C(C)(C)C)c(O)cc1O [4,6-di-tert-butylresorcinol]
Corynebacterium sp.; [1]
  MIC: 7.8 µg/mL (≈ 35.1 µM)
Nocardia asteroides; [2]
  MIC: 7.8 µg/mL
Streptococcus agalactiae; [3]
  MIC: 15.6 µg/mL
Saccharomyces cerevisiae; Saccharomyces cerevisiae
  MIC: 15.6 µg/mL
Staphylococcus aureus; [4]
  MIC: 15.6 µg/mL
Pseudomonas aeruginosa; [5]
  MIC: > 1000 µg/mL
Candida albicans; [6]
  MIC: 62.5 µg/mL
Escherichia coli; [7]
  MIC: > 1000 µg/mL
Streptococcus mutans; [8]
  MIC: 7.8 µg/mL

## O=C(O)CCCCCCCCCCC(=O)O [Dodecanedioic acid]
Streptococcus Group D
  MIC: Ni

## O=C(O)CN(CCN(CC(=O)O)CC(=O)O)CC(=O)O [EDTA (N2 Ca salt), ethylenediamine tetraacetic acid]
Nocardia asteroides; Nocardia asteroides
  MIC: 1000 µg/mL
Streptococcus agalactiae; Streptococcus agalactiae
  MIC: > 1000 µg/mL
Saccharomyces cerevisiae; Saccharomyces cerevisiae, Table 14, Saccharomyces cerevisiae, read-out: MIC
  MIC: > 1000 µg/mL
Staphylococcus aureus; Staphylococcus aureus
  MIC: > 1000 µg/mL
Pseudomonas aeruginosa; Pseudomonas aeruginosa
  MIC: > 1000 µg/mL
Candida albicans; Candida albicans
  MIC: > 1000 µg/mL
Escherichia coli; Escherichia coli, Table 14, Escherichia coli
  MIC: < 1000 µg/mL
Streptococcus mutans; Streptococcus mutans
  MIC: 500 µg/mL
